Drawing on US12116358B2, “Substituted indoles and methods of use thereof” (EPIZYME, INC., priority 2018, dated 2024), this text covers IC50 for 76 molecules.

SMILES strings stand for the structures.

For this test, the target named is T1, SETD2(1434-1711) (Homo sapiens, UniProt Q9BYW2).
T1 construct: SETD2 (1434-1711) Assay; catalogue N/A
T1 sequence (Q9BYW2 1434-1711): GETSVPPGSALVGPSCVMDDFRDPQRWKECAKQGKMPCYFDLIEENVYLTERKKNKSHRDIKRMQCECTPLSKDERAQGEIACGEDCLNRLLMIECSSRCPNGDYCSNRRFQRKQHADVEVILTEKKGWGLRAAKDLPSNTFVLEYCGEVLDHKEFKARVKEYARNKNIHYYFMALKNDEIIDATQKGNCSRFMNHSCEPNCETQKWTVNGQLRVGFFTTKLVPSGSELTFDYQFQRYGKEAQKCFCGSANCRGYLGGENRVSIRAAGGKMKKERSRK
In words: SETD2 (1434-1711) assay. The test is classed as biochemical. To be noted: read-out: SETD2 (1434-1711).
For `Cc1cnc(CNC(=O)c2cc3cccc(C)c3[nH]2)cn1` [compound 723], the IC50 turned out to be 116 µM. For the molecule `Cc1cccc2cc(C(=O)N[C@H]3CC[C@H](C(F)(F)F)CC3)[nH]c12` [compound 780], the IC50 is over 200 µM. As for `COC(=O)CC(NC(=O)c1cc2cccc(C)c2[nH]1)c1ccc(C)cc1` (stereo not shown) [compound 783], the figure is over 200 µM; as for `CC(=O)N1CCC(NC(=O)c2cc3cccc(C)c3[nH]2)CC1` [compound 670], 35.4 µM.

Take `Cc1cccc2cc(C(=O)Nc3ncc4ccccc4n3)[nH]c12` [compound 804]: the IC50 is over 200 µM.

For `Cc1cccc2cc(C(=O)N3CCCc4ccccc4C3)[nH]c12` [compound 718], the IC50 is 103 µM. As for `Cc1cccc2cc(C(=O)NC(C)c3ccccc3)[nH]c12` (stereo not shown) [compound 749], the figure is over 200 µM; as for `Cc1cccc2cc(C(=O)NCc3cn4ccnc4cn3)[nH]c12` [compound 710], 83.4 µM; as for `Cc1cccc2cc(C(=O)N[C@H]3CC[C@@H](CO)CC3)[nH]c12` [compound 662], 29.7 µM.

`COC(=O)CC(NC(=O)c1cc2cccc(C)c2[nH]1)c1ccccc1Br` (stereo not shown) [compound 774]: the IC50 is over 200 µM. As for `COC(=O)C[C@H](NC(=O)c1cc2cccc(C)c2[nH]1)c1ccccc1` [compound 690], the IC50 was 55.8 µM. The result for `CCOC(=O)[C@@H]1CCCC[C@H]1NC(=O)c1cc2cccc(C)c2[nH]1` [compound 797] reads over 200 µM; that for `Cc1cccnc1C(NC(=O)c1cc2cccc(CC3CCC3)c2[nH]1)C1CC1` (stereo not shown) [compound 821], over 200 µM; that for `Cc1cc(C)c2[nH]c(C(=O)N[C@H]3CC[C@H](N)CC3)cc2c1` [compound 756], over 200 µM.

Regarding `Cc1cccc2cc(C(=O)NC3(c4cccnc4)CC3)[nH]c12` [compound 643], the IC50 was determined as 18.6 µM. As for `COC(=O)CC(NC(=O)c1cc2cccc(C)c2[nH]1)c1ccco1` (stereo not shown) [compound 648], the figure is 22.3 µM; as for `Cc1cccc2cc(C(=O)NC(C)c3ccccc3C(F)(F)F)[nH]c12` (stereo not shown) [compound 788], over 200 µM; as for `COc1cc(OC)cc(C(O)CNC(=O)c2cc3cccc(C)c3[nH]2)c1` (stereo not shown) [compound 681], 45 µM. The result for `Cc1cccnc1C(NC(=O)c1cc2cccc(C)c2[nH]1)C1CCNC1` (stereo not shown) [compound 722] reads 116 µM; that for `Cc1cccc2cc(C(=O)NC(c3cncc(CN(C)C)c3)C3CC3)[nH]c12` (stereo not shown) [compound 727], 125 µM. The result for `Cc1cccc2cc(C(=O)NC3CCN(C(=O)CCCN)CC3)[nH]c12` [compound 639] reads 18.5 µM; that for `CNC1CCCN(C(=O)c2cc3cccc(C)c3[nH]2)C1` (stereo not shown) [compound 800], over 200 µM. As to `Cc1oncc1CNC(=O)c1cc2cccc(C)c2[nH]1` [compound 702], the IC50 came to 69.6 µM. The result for `COC(=O)C[C@@H](NC(=O)c1cc2cccc(C)c2[nH]1)C(=O)OC` [compound 694] reads 62.1 µM.

Regarding `Cc1cccc2cc(C(=O)NCc3cnc[nH]3)[nH]c12` [compound 729], the IC50 is 129 µM.

As for `COC(=O)CC(NC(=O)c1cc2cccc(C)c2[nH]1)c1ccc(Cl)cc1` (stereo not shown) [compound 764], the IC50 was over 200 µM. As for `CCC(NC(=O)c1cc2cccc(C)c2[nH]1)c1nc(C)no1` (stereo not shown) [compound 668], the figure is 34.5 µM.

As for `COC(=O)C(NC(=O)c1cc2cccc(C)c2[nH]1)c1ccccc1` (stereo not shown) [compound 701], the IC50 was 69.2 µM. The result for `Cc1c(C(=O)N[C@H]2CC[C@H](N)CC2)[nH]c2c(C)cccc12` [compound 736] reads 168 µM; that for `Cc1cccc2cc(C(=O)N[C@H]3C[C@@H](CO)C3)[nH]c12` [compound 759], over 200 µM. Consider `COC(=O)C[C@@H](NC(=O)c1cc2cccc(C)c2[nH]1)c1cccc(Cl)c1` [compound 634], for which the IC50 was 16.3 µM.

`Cc1c(CN2CCOCC2)cccc1NC(=O)c1cc2cccc(C)c2[nH]1` [compound 624]: the IC50 stood at 10.9 µM. The result for `Cc1cccc2cc(C(=O)NCc3nc4ccccc4o3)[nH]c12` [compound 779] reads over 200 µM; that for `COC(=O)CC(NC(=O)c1cc2cccc(C)c2[nH]1)c1ccccc1` (stereo not shown) [compound 775], over 200 µM. Consider `Cc1cccc2cc(C(=O)N3CCn4cncc4C3)[nH]c12` [compound 810], for which the IC50 is over 200 µM. Regarding `Cc1cccc2cc(C(=O)N3CCCC(NC(=O)CCN)C3)[nH]c12` (stereo not shown) [compound 798], the IC50 was over 200 µM.

As to `Cc1cccc2cc(C(=O)NCc3cccc(CN4CCCC4)c3)[nH]c12` [compound 674], the IC50 stood at 37 µM. The result for `Cc1cccc2cc(C(=O)NC(C)c3ccc(-n4cncn4)cc3)[nH]c12` (stereo not shown) [compound 1155] reads 17.2 µM; that for `Cc1ccc(F)c2cc(C(=O)N[C@@H]3CCC[C@@H](N4CCN(C(=O)N5CCOCC5)CC4)C3)[nH]c12` [compound 829], 1.5 µM; that for `Cc1cccc2cc(C(=O)N[C@@H](c3ccccc3)C(F)(F)F)[nH]c12` [compound 687], 51.6 µM. As for `Cc1cccc2cc(C(=O)N[C@H]3C[C@@H]4CC[C@H]3CN4C(=O)CCCN)[nH]c12` [compound 625], the figure is 11 µM. As for `COc1cccc(C(O)CNC(=O)c2cc3cccc(C)c3[nH]2)c1` (stereo not shown) [compound 695], the figure is 62.1 µM; as for `Cc1cccc2cc(C(=O)NC(C)c3ccn(C)n3)[nH]c12` (stereo not shown) [compound 712], 86.4 µM. In the case of `Cc1cccc2cc(C(=O)NCC(CN(C)C)c3ccccc3)[nH]c12` (stereo not shown) [compound 815], the IC50 was over 200 µM. Turning to `Cc1cccc2cc(C(=O)N(C)[C@H]3CC[C@H](NC(=O)CCN)CC3)[nH]c12` [compound 645], the IC50 came out at 19.9 µM. The result for `COC(=O)CC(NC(=O)c1cc2cccc(C)c2[nH]1)c1ccc(F)cc1` (stereo not shown) [compound 776] reads over 200 µM; that for `CCN1CCN(C2CCCC(NC(=O)c3cc4c(F)ccc(C)c4[nH]3)C2)CC1=O` (stereo not shown) [compound 835], 0.1 µM. The result for `Cc1cccc2cc(C(=O)NCc3ccnn3C)[nH]c12` [compound 693] reads 58.9 µM; that for `COC(=O)CC(NC(=O)c1cc2cccc(C)c2[nH]1)c1ccc(C(C)C)cc1` (stereo not shown) [compound 773], over 200 µM; that for `Cc1cccc2cc(C(=O)N[C@@H]3C[C@@H]4CC[C@H]3CN4C(=O)CCCN)[nH]c12` [compound 657], 25.7 µM. Consider `CC(=O)N[C@H]1CC[C@H](NC(=O)c2cc3cccc(C)c3[nH]2)CC1` [compound 698], for which the IC50 is 63 µM.

With `Cc1cccc2cc(C(=O)NC3C[C@@H]4CC[C@H]3C4)[nH]c12` (stereo partly shown) [compound 654], the IC50 was 25.1 µM. The result for `Cc1cccc([C@@H](C)NC(=O)c2cc3cccc(C)c3[nH]2)c1` [compound 713] reads 91.2 µM; that for `Cc1cccc2cc(C(=O)N3CCC(=O)c4ccccc4C3)[nH]c12` [compound 814], over 200 µM.

Regarding `Cc1cccc2cc(C(=O)NCc3ccccc3N3CCCCC3)[nH]c12` [compound 716], the IC50 is over 100 µM. The result for `Cc1ccc(C)c2[nH]c(C(=O)N[C@H]3CC[C@H](NC(=O)CCN)CC3)cc12` [compound 644] reads 19.5 µM; that for `COC(=O)C[C@@H](NC(=O)c1cc2cccc(C)c2[nH]1)c1ccccc1` [compound 666], over 33 µM; that for `CNC(=O)CC(NC(=O)c1cc2cccc(C)c2[nH]1)c1cccnc1` (stereo not shown) [compound 809], over 200 µM. As for `CCOC(=O)C(CC1CCC1)NC(=O)c1cc2cccc(C)c2[nH]1` (stereo not shown) [compound 630], the figure is 14.6 µM. In the case of `Cc1cccc2cc(C(=O)NCC(O)C3CC3)[nH]c12` (stereo not shown) [compound 731], the IC50 came out at 137 µM. As for `Cc1cccc2cc(C(=O)NC(C)c3cccc4ccccc34)[nH]c12` (stereo not shown) [compound 714], the figure is 98.9 µM; as for `Cc1nonc1CNC(=O)c1cc2cccc(C)c2[nH]1` [compound 732], 137 µM. The result for `Cc1cccc2cc(C(=O)NCC(O)c3c(F)cccc3F)[nH]c12` (stereo not shown) [compound 720] reads 109 µM. The result for `Cc1ccc(F)c2cc(C(=O)N[C@@H]3CCC[C@@H](N4CCn5ccnc5C4)C3)[nH]c12` [compound 853] reads 9.7 µM; that for `Cc1cccc2cc(C(=O)NC(c3ncccn3)C3CC3)[nH]c12` (stereo not shown) [compound 680], 44.8 µM. Consider `CC(=O)NC1CCN([C@@H]2CCC[C@@H](NC(=O)c3cc4c(F)ccc(C)c4[nH]3)C2)C1` (stereo partly shown) [compound 834], for which the IC50 was 5 µM.

With `Cc1cccc2cc(C(=O)NC(c3ccccn3)c3ccccn3)[nH]c12` [compound 637], the IC50 stood at 17.5 µM. As for `Cc1nc(C(C)NC(=O)c2cc3cccc(C)c3[nH]2)no1` (stereo not shown) [compound 785], the figure is over 200 µM; as for `Cc1cccc2cc(C(=O)N[C@H]3CC[C@@](C)(NC(=O)CCN)CC3)[nH]c12` [compound 641], 18.5 µM. As for `Cc1cccc2cc(C(=O)N(C)[C@H]3CC[C@H](N)CC3)[nH]c12` [compound 761], the figure is over 200 µM.

With `COC(=O)C[C@H](NC(=O)c1cc2cccc(C)c2[nH]1)c1cccnc1` [compound 676], the IC50 was 38.1 µM.

Consider `NCCC(=O)N[C@H]1CC[C@H](NC(=O)c2cc3cccc(Cl)c3[nH]2)CC1` [compound 697], for which the IC50 turned out to be 62.8 µM.

As for `Cc1cccc2cc(C(=O)NC3CCCN(C(=O)CCCN)C3)[nH]c12` (stereo not shown) [compound 664], the IC50 amounted to 31.7 µM. As for `Cc1cccc2cc(C(=O)NCc3cccc(CN4CCOCC4)c3)[nH]c12` [compound 709], the figure is 78.4 µM. As for `Cc1cccc2cc(C(=O)NC3CCCN(c4ncccn4)C3)[nH]c12` (stereo not shown) [compound 626], the figure is 12.5 µM; as for `Cc1cccnc1C(CN(C)C)NC(=O)c1cc2cccc(C)c2[nH]1` (stereo not shown) [compound 627], 13.2 µM.
